# Data from US12479816B2, “20-HETE formation inhibitors” (UNIVERSITY OF PITTSBURGH—OF THE COMMONWEALTH SYSTEM OF …, priority 2019, dated 2025).
# Tests used:
# rCYP4F2 = target: T1, rCYP4F2 (Homo sapiens, UniProt P78329); test: Inhibition of 20-HETE formation at 250 or 500 nM in rCYP4F2 incubations; assay type: biochemical; settings: 500 nM compound; rCYP4F2 25 pmol/mL; read-out: rCYP4F2 % inh. @ 500 nM
# T1 sequence (P78329 5-520): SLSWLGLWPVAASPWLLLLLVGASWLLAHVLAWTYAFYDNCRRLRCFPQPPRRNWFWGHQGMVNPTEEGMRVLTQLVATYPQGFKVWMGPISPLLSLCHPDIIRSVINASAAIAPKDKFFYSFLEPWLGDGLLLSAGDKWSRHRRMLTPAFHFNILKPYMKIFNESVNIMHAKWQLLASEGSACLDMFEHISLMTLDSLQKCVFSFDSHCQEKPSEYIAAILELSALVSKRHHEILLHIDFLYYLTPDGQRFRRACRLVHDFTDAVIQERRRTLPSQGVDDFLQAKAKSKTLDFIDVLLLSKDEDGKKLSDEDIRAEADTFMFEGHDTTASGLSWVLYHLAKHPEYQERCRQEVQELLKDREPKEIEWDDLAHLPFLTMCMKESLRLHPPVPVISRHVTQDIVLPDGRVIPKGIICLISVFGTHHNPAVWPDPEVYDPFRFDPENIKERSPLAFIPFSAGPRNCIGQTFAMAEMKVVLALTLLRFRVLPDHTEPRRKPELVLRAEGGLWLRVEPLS
# Experimental: (§1) To screen the inhibitory effects against 20-HETE formation, compounds were screened in HLM, RLM, RKM and rCYP4F2 microsomal incubations. Compounds dissolved in either 100% methanol or 100% DMSO to yield 10 mM stock solution. Microsomal incubations containing HLM, RLM, RKM (300 μg/ml) or rCYP4F2 (25 pmol/mL), AA (100 μM), NADPH (1 mM) treated with test compounds at various concentrations (500 nM or 250 nM) in a 1 ml total volume in incubation buffer (0.12 M potassium phosphate buffer containing 5 mM magnesium chloride). Reaction was started by adding NADPH to the incubates and was carried out at 37° C. in a shaking water bath for 20 min. Reaction was stopped by placing tubes on ice, followed by adding 125 μl 20-HETE-d6 as internal standard to each sample. Microsomal incubations were extracted with 3 ml ethyl ether twice, dried down under nitrogen gas and reconstituted in 125 μl 80:20 methanol:deionized H2O for analysis. 20-HETE formation was quantified using a validated UPLC-MS/MS assay and normalized by vehicle group. Each compound had three replications (n=3). Vehicle group was used as control to calculate percentage of 20-HETE formation rate. HET0016 (250 nM) was used as positive control. Incubates without NADPH group served as the negative control. An Acquity ultra performance LC autosampler (Waters, Milford, MA) was used to isolate 20-HETE on an UPLC BEH C18, 1.7 μm (2.1×100 mm) reversed-phase column (Waters, Milford, MA) protected by a guard column (2.1×5 mm; Waters, Milford, MA) of the same packing material. Column temperature was maintained at 55° C. Mobile phases consisted of 0.005% acetic acid, 5% acetonitrile in deionized water (A) and 0.005% acetic acid in acetonitrile (B). The flow rate for mobile phases is 0.5 ml/min. The initial mixture of mobile phase was 65:35 of A and B. Mobile phase B increased at 0.4 minutes after injection from 35% to 70% in a linear gradient over 4 minutes, and again increased to 95% over 0.5 minutes where it remained for 0.3 minutes. This was followed by a linear return to initial conditions over 0.1 minutes with a 1.5 minute pre-equilibration period prior to the next sample run. Total run time was 6.4 minutes for each injection. Injection volumes were 7.5 μl. Mass spectrometric analysis was carried out using a TSQ Quantum Ultra (Thermo Fisher Scientific, San Jose, CA) triple quadrupole mass spectrometer using heated electrospray ionization (HESI). Mass spectrometer was operated in negative selective reaction monitoring (SRM) mode with unit resolutions at both Q1 and Q3 set at 0.70 Da full width at half maximum. Scan time was set at 0.01 s and collision gas pressure was 1.3 mTorr. Quantitation of 20-HETE by SRM was performed by monitoring the m/z. Analytical data was acquired and analyzed using Xcaliber 3.0 data system (ThermoFinnigan, San Jose, CA).
# [1] = tested on: 20-HETE formation (CYP4) in HLM; test: Inhibition of 20-HETE formation at 250 or 500 nM in HLM microsomal incubations; assay type: biochemical, human; settings: 500 nM compound; HLM 300 μg/ml, AA 100 μM, 20 min
# Experimental: as §1
# [2] = tested on: 20-HETE formation (CYP4) in RLM; test: Inhibition of 20-HETE formation at 250 or 500 nM in RLM microsomal incubations; assay type: biochemical, rat; settings: 500 nM compound; RLM 300 μg/ml
# Experimental: as §1
Compound,inhibition at 0.5 µM (rCYP4F2),HLM % inh. @ 500 nM [1],RLM % inh. @ 500 nM [2]
"COc1ccccc1C1CCN(c2ccn[nH]2)CC1 [Compound 21, 4-(2-Methoxyphenyl)-1-(1H-pyrazol-5-yl)piperidine]",2%,8.80%,0.00%
"COc1ccccc1C1CCN(c2cn[nH]c2)CC1 [Compound 22, 4-(2-Methoxyphenyl)-1-(1H-pyrazol-4-yl)piperidine]",0%,0.00%,0.00%
"Cc1n[nH]cc1N1CCC(c2ccccc2)CC1 [Compound 37, 1-(3-Methyl-1H-pyrazol-4-yl)-4-phenylpiperidine]",31.9%,0.00%,0.00%
"Cc1cc(N2CCC(c3ccccc3)CC2)[nH]n1 [Compound 38, 1-(5-Methyl-1H-pyrazol-5-yl)-4-phenylpiperidine]",22.3%,0.00%,0.00%
"COC(=O)c1cccc(C2CCN(c3ccn[nH]3)CC2)c1 [Compound 56, Methyl 3-(1-(1H-pyrazol-5-yl)piperidin-4-yl)benzoate]",11.4%,0.00%,0.00%
"COC(=O)c1cccc(C2CCN(c3cn[nH]c3)CC2)c1 [Compound 57, Methyl 3-(1-(1H-pyrazol-4-yl)piperidin-4-yl)benzoate]",41.2%,0.00%,43.10%
"COc1cccc(SC2CCN(c3cn[nH]c3)CC2)c1 [Compound 76, 4-((3-Methoxyphenyl)thio)-1-(1H-pyrazol-4-yl)piperidine]",71%,84%,0.00%
"O=C(c1ccc(C2CCN(c3cn[nH]c3)CC2)cc1)N1CCCC1 [Compound 77, (4-(1-(1H-Pyrazol-4-yl)piperidin-4-yl)phenyl)(pyrrolidin-1-yl)methanone]",55%,84.4%,13.80%
O=C(c1ccc(C2CCN(c3ccn[nH]3)CC2)c(F)c1)N1CCCC1 [Compound 82],36%,75%,2.00%
"c1cnc(SC2CCN(c3cn[nH]c3)CC2)nc1 [Compound 88, 2-((1-(1H-Pyrazol-4-yl)piperidin-4-yl)thio)pyrimidine]",26.4%,39.8%,0.00%
"Clc1cccc(CC2CCN(c3cn[nH]c3)CC2)c1 [Compound 90, 4-(3-chlorobenzyl)-1-(1H-pyrazol-4-yl)piperidine]",70.3%,67%,20.80%
"Clc1cccc(CC2CCN(c3ccn[nH]3)CC2)c1 [Compound 91, 4-(3-Chlorobenzyl)-1-(1H-pyrazol-5-yl)piperidine]",39.1%,40.4%,0.00%
"Fc1ccccc1SC1CCN(c2cn[nH]c2)CC1 [Compound 92, 4-((2-Fluorophenyl)thio)-1-(1H-pyrazol-4-yl)piperidine]",87.1%,77.3%,0.00%
"Cc1cccc(CC2CCN(c3cn[nH]c3)CC2)c1 [Compound 94, 4-(3-Methylbenzyl)-1-(1H-pyrazol-4-yl)piperidine]",60.3%,61.3%,13.50%
"O=S(=O)(c1ccc(C2CCN(c3ccn[nH]3)CC2)cc1)N1CCCC1 [Compound 96, 1-(1H-Pyrazol-5-yl)-4-(4-(pyrrolidin-1-ylsulfonyl)phenyl)piperidine]",16.4%,63.10%,0.00%
"Cc1cccc(CC2CCN(c3ccn[nH]3)CC2)c1 [Compound 97, 4-(3-Methylbenzyl)-1-(1H-pyrazol-5-yl)piperidine]",22.9%,35.30%,0.00%
"COc1cc(CC2CCN(c3cn[nH]c3)CC2)ccn1 [Compound 98, 4-((1-(1H-Pyrazol-4-yl)piperidin-4-yl)methyl)-2-methoxypyridine]",25%,37.20%,5.00%
"O=S1(=O)CCc2cc(C3CCN(c4cn[nH]c4)CC3)ccc21 [Compound 102, 5-(1-(1H-Pyrazol-4-yl)piperidin-4-yl)-2,3-dihydrobenzo[b]thiophene 1,1-dioxide]",27.9%,36.50%,0.00%

# Results, then the molecule that gave them:
inhibition at 0.5 µM (rCYP4F2),HLM % inh. @ 500 nM [1],RLM % inh. @ 500 nM [2],Compound
22.7%,6.00%,0.00%,"c1ccc(SC2CCN(c3ccn[nH]3)CC2)cc1 [Compound 39, 4-(Phenylthio)-1-(1H-pyrazol-5-yl)piperidine]"
70.9%,48%,0%,"COc1ccc(SC2CCN(c3ccn[nH]3)CC2)cc1 [Compound 68, 4-((4-Methoxyphenyl)thio)-1-(1H-pyrazol-5-yl)piperidine]"
31%,83.6%,0.00%,"O=C(c1ccc(C2CCN(c3ccn[nH]3)CC2)cc1)N1CCCC1 [Compound 78, (4-(1-(1H-Pyrazol-5-yl)piperidin-4-yl)phenyl)(pyrrolidin-1-yl)methanone]"
62%,60%,4.00%,"COc1ccc(CC2CCN(c3ccn[nH]3)CC2)cc1 [Compound 79, 4-(4-Methoxybenzyl)-1-(1H-pyrazol-5-yl)piperidine]"
64%,81.3%,0.00%,"O=S(=O)(c1ccc(C2CCN(c3cn[nH]c3)CC2)cc1)N1CCCC1 [Compound 85, 1-(1H-Pyrazol-4-yl)-4-(4-(pyrrolidin-1-ylsulfonyl)phenyl)piperidine]"
49.4%,37.9%,18.10%,"FC(F)(F)c1ccnc(C2CCN(c3cn[nH]c3)CC2)c1 [Compound 86, 2-(1-(1H-pyrazol-4-yl)piperidin-4-yl)-4-(trifluoromethyl)pyridine]"
7.4%,15.6%,2.70%,"FC(F)(F)c1ccnc(C2CCN(c3ccn[nH]3)CC2)c1 [Compound 87, 2-(1-(1H-Pyrazol-5-yl)piperidin-4-yl)-4-(trifluoromethyl)pyridine]"
26.3%,42.8%,15.40%,"FC(F)(F)c1cncc(C2CCN(c3cn[nH]c3)CC2)c1 [Compound 95, 4 3-(1-(1H-Pyrazol-4-yl)piperidin-4-yl)-5-(trifluoromethyl)pyridine]"
0%,17.70%,0.00%,"COc1cc(CC2CCN(c3ccn[nH]3)CC2)ccn1 [Compound 99, 4-((1-(1H-Pyrazol-5-yl)piperidin-4-yl)methyl)-2-methoxypyridine]"
